From patent publication US20250319107A1, “USE OF CANNABIDIOL AND CLOBAZAM IN THE TREATMENT OF CHILDHOOD-ONSET EPILEPSY SYNDROMES” (GW Research Limited, priority 2021, published 2025)

Tested on: patients with LGS or DS
Assay: Phase 3 randomized controlled trials of CBD versus placebo, adverse reactions in DS and LGS patients
Format: in vivo, human
Conditions: DS and LGS, 14-week treatment
Description: Randomized, double-blind, parallel-group, trials of CBD versus placebo were undertaken and the adverse event experienced by the patients were collated and investigated.
In summary patients completed a 1-week screening period and a 4-week baseline period before they were randomized to receive CBD or equivalent volumes of placebo. Randomization was stratified by age.
Patients began a 4-week dose escalation period, titrating up to their assigned dose, before continuing on a stable dose of blinded investigational medicinal product (IMP) for 12 or 14 weeks.
Dose escalation for each patient was subject to the investigator's assessment of safety and tolerability. If a dose became poorly tolerated, the investigator may consider temporarily or permanently reducing the dose for the remainder of the study.
Clinic visits occurred for screening (Day-35), baseline (Day-28), randomization (Day 1) and, on Days 15 and 29 during titration and on Days 43, 57, 71 (telephone) and 85 until the end of treatment (Day 113). Safety telephone calls were completed every two days during titration, one week after the end of titration and, for patients not entering the open label extension (OLE), weekly from Visit 10 to Visit 12.
Safety and tolerability measures that were recorded included: adverse events; clinical laboratory parameters; 12-lead electrocardiogram (ECG); physical examination parameters (including height and weight); vital signs; Columbia-Suicide Severity Rating Scale (C-SSRS; 19+ years) or C-SSRS Children's (6-18 years) score, where applicable; number of inpatient hospitalizations due to epilepsy; abuse liability and effects on menstruation cycles (in females).
Table 1.1 below lists the adverse reactions that were reported in DS and LGS patients treated with CBD during the 14-week treatment period in the Phase 3 controlled trials.

[1] = All active (n = 456, includes 10 patients at 5 mg/kg/day)

In the case of C=C(C)[C@@H]1CCC(C)=C[C@H]1c1c(O)cc(CCCCC)cc1O [CBD, cannabidiol], the “Abnormal behavior, adverse reaction incidence” value (shortened to “Abnormal behavior”) (10 mg/kg/day (n = 139)) is reported as 0%, the “Aggression, adverse reaction incidence” value (10 mg/kg/day (n = 139)) is reported as 2% and the “Agitation, adverse reaction incidence” value (10 mg/kg/day (n = 139)) is reported as 0%. For the same compound, the “Alanine aminotransferase increased, adverse reaction incidence” value (shortened to “Alanine aminotransferase increased”) (10 mg/kg/day (n = 139)) was 4%, the “Aspartate aminotransferase increased, adverse reaction incidence” value (“Aspartate aminotransferase increased” below) (10 mg/kg/day (n = 139)) was 4% and the “Decreased appetite, adverse reaction incidence” value (“Decreased appetite” below) (10 mg/kg/day (n = 139)) was 17%. For the same compound, the “Diarrhea, adverse reaction incidence” value (10 mg/kg/day (n = 139)) was 13%, the “Drooling, adverse reaction incidence” value (10 mg/kg/day (n = 139)) was 0% and the “Fatigue, adverse reaction incidence” value (10 mg/kg/day (n = 139)) was 7%. For the same compound, the “Gamma-glutamyl transferase increased, adverse reaction incidence” value (from here on “Gamma-glutamyl transferase increased”) (10 mg/kg/day (n = 139)) was 4%, the “Insomnia, adverse reaction incidence” value (10 mg/kg/day (n = 139)) was 4% and the “Irritability, adverse reaction incidence” value (10 mg/kg/day (n = 139)) was 7%. The “Lethargy, adverse reaction incidence” value (10 mg/kg/day (n = 139)) was 3%, the “Liver function test increased, adverse reaction incidence” value (“Liver function test increased” for short) (10 mg/kg/day (n = 139)) was 0% and the “Pneumonia (grouped terms), adverse reaction incidence” value (from here on “Pneumonia (grouped terms)”) (10 mg/kg/day (n = 139)) was 9%. The “Pyrexia, adverse reaction incidence” value (10 mg/kg/day (n = 139)) was 17%, the “Rash, adverse reaction incidence” value (10 mg/kg/day (n = 139)) was 2% and the “Somnolence (grouped: somnolence, sedation), adverse reaction incidence” value (from here on “Somnolence”) (10 mg/kg/day (n = 139)) was 26%. The “Weight decreased, adverse reaction incidence” value (shortened to “Weight decreased”) (10 mg/kg/day (n = 139)) was 1%, the “Abnormal behavior” value (20 mg/kg/day (n = 307)) was 3% and the “Aggression, adverse reaction incidence” value (20 mg/kg/day (n = 307)) was 5%. The “Agitation, adverse reaction incidence” value (20 mg/kg/day (n = 307)) was 1%, the “Alanine aminotransferase increased” value (20 mg/kg/day (n = 307)) was 7% and the “Aspartate aminotransferase increased” value (20 mg/kg/day (n = 307)) was 7%. The “Decreased appetite” value (20 mg/kg/day (n = 307)) was 24%, the “Diarrhea, adverse reaction incidence” value (20 mg/kg/day (n = 307)) was 21% and the “Drooling, adverse reaction incidence” value (20 mg/kg/day (n = 307)) was 3%. For the same compound, the “Fatigue, adverse reaction incidence” value (20 mg/kg/day (n = 307)) was 13%, the “Gamma-glutamyl transferase increased” value (20 mg/kg/day (n = 307)) was 5% and the “Insomnia, adverse reaction incidence” value (20 mg/kg/day (n = 307)) was 3%. The “Irritability, adverse reaction incidence” value (20 mg/kg/day (n = 307)) was 5%, the “Lethargy, adverse reaction incidence” value (20 mg/kg/day (n = 307)) was 6% and the “Liver function test increased” value (20 mg/kg/day (n = 307)) was 3%. The “Pneumonia (grouped terms)” value (20 mg/kg/day (n = 307)) was 5%, the “Pyrexia, adverse reaction incidence” value (20 mg/kg/day (n = 307)) was 15% and the “Rash, adverse reaction incidence” value (20 mg/kg/day (n = 307)) was 5%. For the same compound, the “Somnolence” value (20 mg/kg/day (n = 307)) was 29%, the “Weight decreased” value (20 mg/kg/day (n = 307)) was 4% and the “Abnormal behavior” value [1] was 2%. The “Aggression, adverse reaction incidence” value [1] was 4%, the “Agitation, adverse reaction incidence” value [1] was 1% and the “Alanine aminotransferase increased” value [1] was 6%. For the same compound, the “Aspartate aminotransferase increased” value [1] was 6%, the “Decreased appetite” value [1] was 21% and the “Diarrhea, adverse reaction incidence” value [1] was 18%. The “Drooling, adverse reaction incidence” value [1] was 2%, the “Fatigue, adverse reaction incidence” value [1] was 11% and the “Gamma-glutamyl transferase increased” value [1] was 4%. The “Insomnia, adverse reaction incidence” value [1] was 3%, the “Irritability, adverse reaction incidence” value [1] was 6% and the “Lethargy, adverse reaction incidence” value [1] was 5%. For the same compound, the “Liver function test increased” value [1] was 2%, the “Pneumonia (grouped terms)” value [1] was 6% and the “Pyrexia, adverse reaction incidence” value [1] was 16%. The “Rash, adverse reaction incidence” value [1] was 4%, the “Somnolence” value [1] was 29% and the “Weight decreased” value [1] was 3%.
